Measurements taken from patent US9352013B2, “Uses of bremelanotide in therapy for female sexual dysfunction” (Palatin Technologies, Inc., priority 2012, dated 2016).
“Also recorded” adds a separate entry of the source. Read-outs that look alike come from different tables or passages of the source.

Experiments:
[1] = Example 1: pharmacokinetics after in-clinic subcutaneous dose; assay type: in vivo, human; details: for AUC(0-t) / Cmax: human, sc
Method: Ambulatory blood pressure monitoring was conducted following both placebo and randomized treatment group in-clinic administrations. Three periods of ambulatory blood pressure monitoring were included, the first period was from before to 24 hours after a single, in-clinic dose of placebo (to establish a baseline); the second and third periods occurred from before to 24 hours after each of 2 single, in-clinic doses of double-blind treatment, administered within 14 days of each other. Blood samples for pharmacokinetic analysis were collected before and at 0.5, 1.0, and 2.0 hours after each in-clinic bremelanotide single-dose treatment (double-blind only), to permit analysis of concentration-response relationships.
Mean pharmacokinetic parameters were determined by bremelanotide dose and visit, including Cmax determinations (the highest ng/mL concentration at either 0.5 or 1 hour post administration) and AUC determinations at two hours and, for a subset of subjects in each group, at four hours.
The Cmax for the mean curve was calculated by averaging the concentrations at each time point (0.5, 1, 2 and 4 hours), and this is shown in FIG. 3.

[2] = Example 1: adverse events and discontinuations; assay type: in vivo, human; details: for Adverse event leading to withdrawal: Flushing, subjects (%) / Adverse event leading to withdrawal: Hypertension, subjects (%) / Adverse event leading to withdrawal: Nausea, subjects (%) / Adverse event leading to withdrawal: Vomiting, subjects (%) / Adverse event: Any leading to withdrawal, subjects (%) / Adverse event: Any, subjects (%) / Adverse event: Flushing, subjects (%) / Adverse event: Headache, subjects (%) / Adverse event: Injection-site pain, subjects (%) / Adverse event: Injection-site pruritus, subjects (%) / Adverse event: Nausea, subjects (%) / Adverse event: Upper respiratory tract infection, subjects (%): double-blind treatment
Method: A multi-centered, placebo-controlled, randomized, parallel group trial with fixed dose levels and designed to identify appropriate doses of bremelanotide administered by subcutaneous injection in premenopausal females with FSAD and/or HSDD, under the conditions of home use, was conducted. Subjects received a single dose of placebo (subject-blinded) in-clinic followed by 4 weeks of subject-blinded placebo treatment at home (subjects self-administered treatment as needed). Subjects who continued to qualify for the trial then received 2 single in-clinic doses of randomized treatment (double-blind; approximately one week apart), followed by 12 weeks of double-blind treatment at home (subjects self-administered treatment as needed).
Bremelanotide was well-tolerated during the trial. The most common types of treatment-emergent adverse events reported more frequently in the bremelanotide arms were facial flushing, nausea, emesis and headache. The study dosed 395 patients. A total of 26 patients discontinued from the study based on preset blood pressure change criterion spread across all arms (N=26, Placebo: 6, bremelanotide arms—0.75 mg: 4, 1.25 mg: 9, 1.75 mg: 7). A total of 19 patients discontinued from the study based on adverse events spread across all arms (N=19, Placebo: 5, bremelanotide arms—0.75 mg: 2, 1.25 mg: 4, 1.75 mg: 8). The adverse events that most commonly lead to discontinuation (other than meeting the blood pressure criterion) were flushing, nausea and emesis. Based on a safety review by an independent Data Safety Monitoring Board, no significant safety issues or concerns were identified during the study. […] Adverse events during the double-blind treatment period are shown on Table 6 below.

female rats = details: cited from earlier work
[3] = test system: women diagnosed with sexual arousal disorder; details: single intranasal dose of 20 mg; cited from earlier work

CCCC[C@H](NC(C)=O)C(=O)N[C@H]1CC(=O)NCCCC[C@@H](C(=O)O)NC(=O)[C@H](Cc2c[nH]c3ccccc23)NC(=O)[C@H](CCCNC(=N)N)NC(=O)[C@@H](Cc2ccccc2)NC(=O)[C@H](Cc2c[nH]cn2)NC1=O [bremelanotide, Ac-Nle-cyclo(-Asp-His-D-Phe-Arg-Trp-Lys)-OH]
Cmax, Max ([1]; 1.75 mg SC, Visit 5): 115 ng/mL
Cmax, Min ([1]; 1.75 mg SC, Visit 5): 15 ng/mL
AUC(0-t) ([1]; blood, 0.75 mg, 0.75 mg SC, Visit 5, read-out: AUC(0-2h), Median): 52 ng·h/mL
AUC(0-t) ([1]; blood, 0.75 mg, 0.75 mg SC, Visit 5, read-out: AUC(0-4h), Median): 80 ng·h/mL
Cmax ([1]; blood, 0.75 mg, 0.75 mg SC, Visit 5, read-out: Cmax, Median): 36 ng/mL
AUC(0-t) ([1]; blood, 0.75 mg, 0.75 mg SC, Visit 7, read-out: AUC(0-2h), Mean): 53 ng·h/mL
AUC(0-t) ([1]; blood, 0.75 mg, 0.75 mg SC, Visit 7, read-out: AUC(0-2h), Median): 52 ng·h/mL
AUC(0-t) ([1]; blood, 0.75 mg, 0.75 mg SC, Visit 7, read-out: AUC(0-4h), Mean): 80 ng·h/mL
AUC(0-t) ([1]; blood, 0.75 mg, 0.75 mg SC, Visit 7, read-out: AUC(0-4h), Median): 79 ng·h/mL
Cmax ([1]; blood, 0.75 mg, 0.75 mg SC, Visit 7, read-out: Cmax, Median): 37 ng/mL
AUC(0-t) ([1]; blood, 1.25 mg, 1.25 mg SC, Visit 5, read-out: AUC(0-2h), Mean): 86 ng·h/mL
AUC(0-t) ([1]; blood, 1.25 mg, 1.25 mg SC, Visit 5, read-out: AUC(0-2h), Median): 81 ng·h/mL
AUC(0-t) ([1]; blood, 1.25 mg, 1.25 mg SC, Visit 5, read-out: AUC(0-4h), Mean): 138 ng·h/mL
AUC(0-t) ([1]; blood, 1.25 mg, 1.25 mg SC, Visit 5, read-out: AUC(0-4h), Median): 136 ng·h/mL
Cmax ([1]; blood, 1.25 mg, 1.25 mg SC, Visit 5, read-out: Cmax, Mean): 60 ng/mL
Cmax ([1]; blood, 1.25 mg, 1.25 mg SC, Visit 5, read-out: Cmax, Median): 56 ng/mL
AUC(0-t) ([1]; blood, 1.25 mg, 1.25 mg SC, Visit 7, read-out: AUC(0-2h), Mean): 84 ng·h/mL
AUC(0-t) ([1]; blood, 1.25 mg, 1.25 mg SC, Visit 7, read-out: AUC(0-2h), Median): 84 ng·h/mL
AUC(0-t) ([1]; blood, 1.25 mg, 1.25 mg SC, Visit 7, read-out: AUC(0-4h), Mean): 142 ng·h/mL
AUC(0-t) ([1]; blood, 1.25 mg, 1.25 mg SC, Visit 7, read-out: AUC(0-4h), Median): 144 ng·h/mL
Cmax ([1]; blood, 1.25 mg, 1.25 mg SC, Visit 7, read-out: Cmax, Mean): 60 ng/mL
Cmax ([1]; blood, 1.25 mg, 1.25 mg SC, Visit 7, read-out: Cmax, Median): 60 ng/mL
AUC(0-t) ([1]; in vivo, 0.75 mg, 0.75 mg SC, Visit 5, read-out: AUC(0-2h), Mean): 53 ng·h/mL
AUC(0-t) ([1]; in vivo, 0.75 mg, 0.75 mg SC, Visit 5, read-out: AUC(0-4h), Mean): 84 ng·h/mL
Cmax ([1]; in vivo, 0.75 mg, 0.75 mg SC, Visit 5, read-out: Cmax, Mean): 37 ng/mL
Cmax ([1]; in vivo, 0.75 mg, 0.75 mg SC, Visit 7, read-out: Cmax, Mean): 38 ng/mL
AUC(0-t) ([1]; in vivo, 1.75 mg, 1.75 mg SC, Visit 5, read-out: AUC(0-2h), Mean): 112 ng·h/mL
AUC(0-t) ([1]; in vivo, 1.75 mg, 1.75 mg SC, Visit 5, read-out: AUC(0-2h), Median): 112 ng·h/mL
AUC(0-t) ([1]; in vivo, 1.75 mg, 1.75 mg SC, Visit 5, read-out: AUC(0-4h), Mean): 178 ng·h/mL
AUC(0-t) ([1]; in vivo, 1.75 mg, 1.75 mg SC, Visit 5, read-out: AUC(0-4h), Median): 179 ng·h/mL
Cmax ([1]; in vivo, 1.75 mg, 1.75 mg SC, Visit 5, read-out: Cmax, Mean): 77 ng/mL
Cmax ([1]; in vivo, 1.75 mg, 1.75 mg SC, Visit 5, read-out: Cmax, Median): 78 ng/mL
AUC(0-t) ([1]; in vivo, 1.75 mg, 1.75 mg SC, Visit 7, read-out: AUC(0-2h), Mean): 112 ng·h/mL
AUC(0-t) ([1]; in vivo, 1.75 mg, 1.75 mg SC, Visit 7, read-out: AUC(0-2h), Median): 111 ng·h/mL
AUC(0-t) ([1]; in vivo, 1.75 mg, 1.75 mg SC, Visit 7, read-out: AUC(0-4h), Mean): 184 ng·h/mL
AUC(0-t) ([1]; in vivo, 1.75 mg, 1.75 mg SC, Visit 7, read-out: AUC(0-4h), Median): 180 ng·h/mL
Cmax ([1]; in vivo, 1.75 mg, 1.75 mg SC, Visit 7, read-out: Cmax, Mean): 78 ng/mL
Cmax ([1]; in vivo, 1.75 mg, 1.75 mg SC, Visit 7, read-out: Cmax, Median): 77 ng/mL
Cmax ([1]; in vivo, 1.75 mg, 1.75 mg subcutaneous dose, Example 1, read-out: Cmax, maximum): 115 ng/mL
Cmax ([1]; in vivo, 1.75 mg, 1.75 mg subcutaneous dose, Example 1, read-out: Cmax, mean): 77.2 ± 19.5 ng/mL
Cmax ([1]; in vivo, 1.75 mg, 1.75 mg subcutaneous dose, Example 1, read-out: Cmax, median): 78 ng/mL
Cmax ([1]; in vivo, 1.75 mg, 1.75 mg subcutaneous dose, Example 1, read-out: Cmax, minimum): 15 ng/mL
Patients discontinued based on adverse events ([2]; 0.75 mg SC): 2
Patients discontinued on preset blood pressure change criterion ([2]; 0.75 mg SC): 4
Adverse event leading to withdrawal: Flushing, subjects (%) ([2]; 0.75 mg SC (N = 100)): 0
Adverse event leading to withdrawal: Hypertension, subjects (%) ([2]; 0.75 mg SC (N = 100)): 2 (2%)
Adverse event leading to withdrawal: Nausea, subjects (%) ([2]; 0.75 mg SC (N = 100)): 0
Adverse event leading to withdrawal: Vomiting, subjects (%) ([2]; 0.75 mg SC (N = 100)): 0
Adverse event: Any leading to withdrawal, subjects (%) ([2]; 0.75 mg SC (N = 100)): 2 (2%)
Adverse event: Any, subjects (%) ([2]; 0.75 mg SC (N = 100)): 64 (64%)
Adverse event: Flushing, subjects (%) ([2]; 0.75 mg SC (N = 100)): 17 (17%)
Adverse event: Headache, subjects (%) ([2]; 0.75 mg SC (N = 100)): 9 (9%)
Adverse event: Injection-site pain, subjects (%) ([2]; 0.75 mg SC (N = 100)): 6 (6%)
Adverse event: Injection-site pruritus, subjects (%) ([2]; 0.75 mg SC (N = 100)): 4 (4%)
Adverse event: Nausea, subjects (%) ([2]; 0.75 mg SC (N = 100)): 18 (18%)
Adverse event: Upper respiratory tract infection, subjects (%) ([2]; 0.75 mg SC (N = 100)): 8 (8%)
Patients discontinued based on adverse events ([2]; 1.25 mg SC): 4
Patients discontinued on preset blood pressure change criterion ([2]; 1.25 mg SC): 9
Adverse event leading to withdrawal: Flushing, subjects (%) ([2]; 1.25 mg SC (N = 99)): 1 (1%)
Adverse event leading to withdrawal: Hypertension, subjects (%) ([2]; 1.25 mg SC (N = 99)): 0
Adverse event leading to withdrawal: Nausea, subjects (%) ([2]; 1.25 mg SC (N = 99)): 0
Adverse event leading to withdrawal: Vomiting, subjects (%) ([2]; 1.25 mg SC (N = 99)): 1 (1%)
Adverse event: Any leading to withdrawal, subjects (%) ([2]; 1.25 mg SC (N = 99)): 4 (4%)
Adverse event: Any, subjects (%) ([2]; 1.25 mg SC (N = 99)): 61 (62%)
Adverse event: Flushing, subjects (%) ([2]; 1.25 mg SC (N = 99)): 14 (14%)
Adverse event: Headache, subjects (%) ([2]; 1.25 mg SC (N = 99)): 9 (9%)
Adverse event: Injection-site pain, subjects (%) ([2]; 1.25 mg SC (N = 99)): 6 (6%)
Adverse event: Injection-site pruritus, subjects (%) ([2]; 1.25 mg SC (N = 99)): 4 (4%)
Adverse event: Nausea, subjects (%) ([2]; 1.25 mg SC (N = 99)): 22 (22%)
Adverse event: Upper respiratory tract infection, subjects (%) ([2]; 1.25 mg SC (N = 99)): 5 (5%)
Patients discontinued based on adverse events ([2]; 1.75 mg SC): 8
Patients discontinued on preset blood pressure change criterion ([2]; 1.75 mg SC): 7
Adverse event leading to withdrawal: Flushing, subjects (%) ([2]; 1.75 mg SC (N = 98)): 1 (1%)
Adverse event leading to withdrawal: Hypertension, subjects (%) ([2]; 1.75 mg SC (N = 98)): 1 (1%)
Adverse event leading to withdrawal: Nausea, subjects (%) ([2]; 1.75 mg SC (N = 98)): 3 (3%)
Adverse event leading to withdrawal: Vomiting, subjects (%) ([2]; 1.75 mg SC (N = 98)): 3 (3%)
Adverse event: Any leading to withdrawal, subjects (%) ([2]; 1.75 mg SC (N = 98)): 8 (8%)
Adverse event: Any, subjects (%) ([2]; 1.75 mg SC (N = 98)): 67 (68%)
Adverse event: Flushing, subjects (%) ([2]; 1.75 mg SC (N = 98)): 17 (17%)
Adverse event: Headache, subjects (%) ([2]; 1.75 mg SC (N = 98)): 14 (14%)
Adverse event: Injection-site pain, subjects (%) ([2]; 1.75 mg SC (N = 98)): 7 (7%)
Adverse event: Injection-site pruritus, subjects (%) ([2]; 1.75 mg SC (N = 98)): 6 (6%)
Adverse event: Nausea, subjects (%) ([2]; 1.75 mg SC (N = 98)): 24 (24%)
Adverse event: Upper respiratory tract infection, subjects (%) ([2]; 1.75 mg SC (N = 98)): 4 (4%)
Tolerability during the trial ([2]; 0.75-1.75 mg SC): generally well tolerated
Serious adverse events related to treatment ([2]; Example 1 study): none were considered related; also recorded: no serious adverse events
Effect on appetitive sexual behavior (female rats): selective pharmacological effect on appetitive sexual behavior was observed
Dopamine release in the medial preoptic area (female rats; subcutaneous injections): increasing dopamine release
Immediate-early gene product Fos in limbic and hypothalamic structures (female rats; subcutaneous injections): inducing
Vaginal pulse amplitude measures compared to placebo [3]: without statistically relevant differences
